Assay results from PubChem BioAssay (NCI).
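Results reflect a 48-hour exposure of cells in 96-well plates to compound at five concentrations. TGI marks complete inhibition of growth.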

Legend:
Assay in all cases: NCI tumour cell line growth inhibition, 48 h
NCI-H226 lung = system: NCI-H226 lung
M19-MEL melanoma = system: M19-MEL melanoma
786-0 renal = system: 786-0 renal
HOP-92 NSCLC = system: HOP-92 NSCLC
M14 melanoma = system: M14 melanoma
SK-MEL-5 melanoma = system: SK-MEL-5 melanoma
XF 498 CNS = system: XF 498 CNS
OVCAR-8 ovarian = system: OVCAR-8 ovarian
SNB-78 CNS = system: SNB-78 CNS
CCRF-CEM leukemia = system: CCRF-CEM leukemia
RPMI-8226 leukemia = system: RPMI-8226 leukemia
SK-MEL-28 melanoma = system: SK-MEL-28 melanoma
KM12 colon = system: KM12 colon
NCI-H522 lung = system: NCI-H522 lung
HCC-2998 colon = system: HCC-2998 colon
A549 NSCLC = system: A549 NSCLC
SNB-75 CNS = system: SNB-75 CNS
SF-268 CNS = system: SF-268 CNS
TK-10 renal = system: TK-10 renal
EKVX NSCLC = system: EKVX NSCLC
A498 renal = system: A498 renal
CAKI-1 renal = system: CAKI-1 renal
RXF-631 renal = system: RXF-631 renal
KM20L2 colon = system: KM20L2 colon
SK-OV-3 ovarian = system: SK-OV-3 ovarian
RXF 393 renal = system: RXF 393 renal
OVCAR-3 ovarian = system: OVCAR-3 ovarian
K-562 leukemia = system: K-562 leukemia
HL-60(TB) leukemia = system: HL-60(TB) leukemia
SW-620 colon = system: SW-620 colon
HT29 colon = system: HT29 colon
HOP-18 NSCLC = system: HOP-18 NSCLC
HCT-116 colon = system: HCT-116 colon
HOP-62 NSCLC = system: HOP-62 NSCLC
U251 CNS = system: U251 CNS
UO-31 renal = system: UO-31 renal
COLO 205 colon = system: COLO 205 colon
HCT-15 colon = system: HCT-15 colon
OVCAR-5 ovarian = system: OVCAR-5 ovarian
UACC-257 melanoma = system: UACC-257 melanoma
SF-295 CNS = system: SF-295 CNS
MALME-3M melanoma = system: MALME-3M melanoma
IGROV1 ovarian = system: IGROV1 ovarian
LXFL 529 NSCLC = system: LXFL 529 NSCLC
LOX IMVI melanoma = system: LOX IMVI melanoma
SNB-19 CNS = system: SNB-19 CNS
NCI-H23 lung = system: NCI-H23 lung
OVCAR-4 ovarian = system: OVCAR-4 ovarian
SF-539 CNS = system: SF-539 CNS
NCI-H460 lung = system: NCI-H460 lung
SN12C renal = system: SN12C renal
DLD-1 colon = system: DLD-1 colon
SR leukemia = system: SR leukemia
DMS 114 small cell lung = system: DMS 114 small cell lung
SK-MEL-2 melanoma = system: SK-MEL-2 melanoma
UACC-62 melanoma = system: UACC-62 melanoma
DMS 273 small cell lung = system: DMS 273 small cell lung
ACHN renal = system: ACHN renal
MOLT-4 leukemia = system: MOLT-4 leukemia

Compound `COC(=O)C(=O)C(C(=O)C(=O)Nc1ccc(F)cc1)c1nc2ccc([N+](=O)[O-])cc2[nH]c1=O` (configuration not stated) has a TGI (NCI-H226 lung) greater than 100 µM, a TGI (M19-MEL melanoma) greater than 100 µM and a TGI (786-0 renal) greater than 100 µM. It also gave a TGI (HOP-92 NSCLC) greater than 100 µM, a TGI (M14 melanoma) greater than 100 µM and a TGI (SK-MEL-5 melanoma) greater than 100 µM. For the same compound, the TGI (XF 498 CNS) was greater than 100 µM, the TGI (OVCAR-8 ovarian) was greater than 100 µM and the TGI (SNB-78 CNS) was greater than 100 µM. It also gave a TGI (CCRF-CEM leukemia) greater than 100 µM, a TGI (RPMI-8226 leukemia) greater than 100 µM and a TGI (SK-MEL-28 melanoma) greater than 100 µM. For the same compound, the TGI (KM12 colon) was greater than 100 µM, the TGI (NCI-H522 lung) was greater than 100 µM and the TGI (HCC-2998 colon) was greater than 100 µM. For the same compound, the TGI (A549 NSCLC) was greater than 100 µM, the TGI (SNB-75 CNS) was greater than 100 µM and the TGI (SF-268 CNS) was greater than 100 µM. For the same compound, the TGI (TK-10 renal) was greater than 100 µM, the TGI (EKVX NSCLC) was greater than 100 µM and the TGI (A498 renal) was greater than 100 µM. It also gave a TGI (CAKI-1 renal) greater than 100 µM, a TGI (RXF-631 renal) greater than 100 µM and a TGI (KM20L2 colon) greater than 100 µM. For the same compound, the TGI (SK-OV-3 ovarian) was greater than 100 µM, the TGI (RXF 393 renal) was greater than 100 µM and the TGI (OVCAR-3 ovarian) was greater than 100 µM. The TGI (K-562 leukemia) was greater than 100 µM, the TGI (HL-60(TB) leukemia) was greater than 100 µM and the TGI (SW-620 colon) was greater than 100 µM. It also gave a TGI (HT29 colon) greater than 100 µM, a TGI (HOP-18 NSCLC) greater than 100 µM and a TGI (HCT-116 colon) greater than 100 µM. The TGI (HOP-62 NSCLC) was greater than 100 µM, the TGI (U251 CNS) was greater than 100 µM and the TGI (UO-31 renal) was greater than 100 µM. For the same compound, the TGI (COLO 205 colon) was greater than 100 µM, the TGI (HCT-15 colon) was greater than 100 µM and the TGI (OVCAR-5 ovarian) was greater than 100 µM. The TGI (UACC-257 melanoma) was greater than 100 µM, the TGI (SF-295 CNS) was greater than 100 µM and the TGI (MALME-3M melanoma) was greater than 100 µM. The TGI (IGROV1 ovarian) was greater than 100 µM, the TGI (LXFL 529 NSCLC) was greater than 100 µM and the TGI (LOX IMVI melanoma) was greater than 100 µM. The TGI (SNB-19 CNS) was greater than 100 µM, the TGI (NCI-H23 lung) was greater than 100 µM and the TGI (OVCAR-4 ovarian) was greater than 100 µM. For the same compound, the TGI (SF-539 CNS) was greater than 100 µM, the TGI (NCI-H460 lung) was greater than 100 µM and the TGI (SN12C renal) was greater than 100 µM. It also gave a TGI (DLD-1 colon) greater than 100 µM and a TGI (SR leukemia) greater than 100 µM.

For `c1ccc2c(c1)cc(C1NCCc3[nH]cnc31)c1ccccc12` (configuration not stated), the TGI (DMS 114 small cell lung) was greater than 64.3 µM, the TGI (NCI-H226 lung) was greater than 68.1 µM and the TGI (M19-MEL melanoma) was greater than 59.5 µM. It also gave a TGI (786-0 renal) greater than 60.8 µM, a TGI (HOP-92 NSCLC) greater than 95.6 µM and a TGI (M14 melanoma) of 36.7 µM. The TGI (SK-MEL-5 melanoma) was greater than 69.8 µM, the TGI (XF 498 CNS) was 79 µM and the TGI (OVCAR-8 ovarian) was greater than 100 µM. It also gave a TGI (SNB-78 CNS) greater than 100 µM, a TGI (CCRF-CEM leukemia) greater than 67.9 µM and a TGI (RPMI-8226 leukemia) greater than 78.4 µM. For the same compound, the TGI (SK-MEL-28 melanoma) was greater than 65.5 µM, the TGI (KM12 colon) was greater than 100 µM and the TGI (NCI-H522 lung) was greater than 68.5 µM. It also gave a TGI (HCC-2998 colon) of 21.8 µM, a TGI (A549 NSCLC) greater than 100 µM and a TGI (SNB-75 CNS) greater than 100 µM. The TGI (SF-268 CNS) was greater than 100 µM, the TGI (TK-10 renal) was greater than 100 µM and the TGI (EKVX NSCLC) was greater than 100 µM. The TGI (A498 renal) was 50 µM, the TGI (CAKI-1 renal) was greater than 100 µM and the TGI (RXF-631 renal) was greater than 100 µM. The TGI (KM20L2 colon) was greater than 100 µM, the TGI (SK-MEL-2 melanoma) was 36.5 µM and the TGI (SK-OV-3 ovarian) was greater than 100 µM. For the same compound, the TGI (RXF 393 renal) was 85.6 µM, the TGI (OVCAR-3 ovarian) was greater than 100 µM and the TGI (K-562 leukemia) was 41.1 µM. For the same compound, the TGI (HL-60(TB) leukemia) was greater than 100 µM, the TGI (UACC-62 melanoma) was greater than 51.1 µM and the TGI (DMS 273 small cell lung) was 87.9 µM. The TGI (ACHN renal) was greater than 61.9 µM, the TGI (SW-620 colon) was greater than 60.5 µM and the TGI (HT29 colon) was greater than 100 µM. It also gave a TGI (HOP-18 NSCLC) greater than 100 µM, a TGI (HCT-116 colon) of 42.7 µM and a TGI (HOP-62 NSCLC) greater than 88.6 µM. It also gave a TGI (U251 CNS) greater than 57.7 µM, a TGI (UO-31 renal) greater than 100 µM and a TGI (COLO 205 colon) of 26.4 µM. For the same compound, the TGI (HCT-15 colon) was greater than 100 µM, the TGI (OVCAR-5 ovarian) was greater than 100 µM and the TGI (UACC-257 melanoma) was greater than 68.3 µM. For the same compound, the TGI (SF-295 CNS) was greater than 100 µM, the TGI (MALME-3M melanoma) was greater than 100 µM and the TGI (IGROV1 ovarian) was greater than 100 µM. The TGI (LXFL 529 NSCLC) was greater than 63.5 µM, the TGI (LOX IMVI melanoma) was 40.7 µM and the TGI (SNB-19 CNS) was greater than 100 µM. For the same compound, the TGI (NCI-H23 lung) was greater than 100 µM, the TGI (OVCAR-4 ovarian) was greater than 86.8 µM and the TGI (SF-539 CNS) was greater than 59.9 µM. It also gave a TGI (NCI-H460 lung) greater than 53.6 µM, a TGI (SN12C renal) greater than 100 µM and a TGI (MOLT-4 leukemia) of 61.7 µM. The TGI (DLD-1 colon) was greater than 100 µM and the TGI (SR leukemia) was 61.1 µM.

For `CCOC(=O)NC(=O)c1cn(CCOC(=O)CCCCCCCCC(=O)OCCn2cc(C(=O)NC(=O)OCC)c(=O)[nH]c2=O)c(=O)[nH]c1=O`, the TGI (DMS 114 small cell lung) was greater than 100 µM, the TGI (NCI-H226 lung) was greater than 100 µM and the TGI (M19-MEL melanoma) was greater than 100 µM. The TGI (786-0 renal) was greater than 100 µM, the TGI (HOP-92 NSCLC) was greater than 100 µM and the TGI (M14 melanoma) was greater than 100 µM. For the same compound, the TGI (SK-MEL-5 melanoma) was greater than 100 µM, the TGI (XF 498 CNS) was greater than 100 µM and the TGI (OVCAR-8 ovarian) was greater than 100 µM. It also gave a TGI (SNB-78 CNS) greater than 100 µM, a TGI (CCRF-CEM leukemia) greater than 100 µM and a TGI (RPMI-8226 leukemia) greater than 100 µM. It also gave a TGI (SK-MEL-28 melanoma) greater than 100 µM, a TGI (KM12 colon) greater than 100 µM and a TGI (HCC-2998 colon) greater than 100 µM. It also gave a TGI (A549 NSCLC) greater than 100 µM, a TGI (SNB-75 CNS) greater than 100 µM and a TGI (SF-268 CNS) greater than 100 µM. The TGI (TK-10 renal) was greater than 100 µM, the TGI (EKVX NSCLC) was greater than 100 µM and the TGI (A498 renal) was greater than 100 µM. For the same compound, the TGI (CAKI-1 renal) was greater than 100 µM, the TGI (RXF-631 renal) was greater than 100 µM and the TGI (KM20L2 colon) was greater than 100 µM. The TGI (SK-MEL-2 melanoma) was greater than 100 µM, the TGI (RXF 393 renal) was greater than 100 µM and the TGI (OVCAR-3 ovarian) was greater than 100 µM. It also gave a TGI (K-562 leukemia) greater than 100 µM, a TGI (HL-60(TB) leukemia) greater than 100 µM and a TGI (UACC-62 melanoma) greater than 100 µM. For the same compound, the TGI (DMS 273 small cell lung) was greater than 100 µM, the TGI (ACHN renal) was greater than 100 µM and the TGI (SW-620 colon) was greater than 100 µM. For the same compound, the TGI (HT29 colon) was greater than 100 µM, the TGI (HOP-18 NSCLC) was greater than 100 µM and the TGI (HCT-116 colon) was greater than 100 µM. The TGI (HOP-62 NSCLC) was greater than 100 µM, the TGI (UO-31 renal) was greater than 100 µM and the TGI (HCT-15 colon) was greater than 100 µM. The TGI (OVCAR-5 ovarian) was greater than 100 µM, the TGI (UACC-257 melanoma) was greater than 100 µM and the TGI (SF-295 CNS) was greater than 100 µM. It also gave a TGI (MALME-3M melanoma) greater than 100 µM, a TGI (IGROV1 ovarian) greater than 100 µM and a TGI (LXFL 529 NSCLC) greater than 100 µM. The TGI (LOX IMVI melanoma) was greater than 100 µM, the TGI (SNB-19 CNS) was greater than 100 µM and the TGI (NCI-H23 lung) was 56.7 µM. For the same compound, the TGI (OVCAR-4 ovarian) was greater than 100 µM, the TGI (SF-539 CNS) was greater than 100 µM and the TGI (NCI-H460 lung) was greater than 100 µM. For the same compound, the TGI (SN12C renal) was greater than 100 µM, the TGI (MOLT-4 leukemia) was greater than 100 µM and the TGI (DLD-1 colon) was greater than 100 µM. For the same compound, the TGI (SR leukemia) was greater than 100 µM.
